Data published in PubChem BioAssay (NCI).
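All cell lines were grown in 96-well plates and treated with compound for 48 hours. The concentration for full growth arrest is given as TGI.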

Key:
Assay in all cases: growth of human tumour cells (NCI), 48 h
[1] = system: TK-10 renal
[2] = system: DMS 273 small cell lung
[3] = system: RXF-631 renal
[4] = system: UO-31 renal
[5] = system: DLD-1 colon
[6] = system: LXFL 529 NSCLC
[7] = system: SNB-75 CNS
[8] = system: CCRF-CEM leukemia
[9] = system: RXF 393 renal
[10] = system: A549 NSCLC
[11] = system: NCI-H460 lung
[12] = system: MOLT-4 leukemia
[13] = system: HOP-18 NSCLC
[14] = system: A498 renal
[15] = system: HCT-116 colon
[16] = system: UACC-62 melanoma
[17] = system: EKVX NSCLC
[18] = system: NCI-H23 lung
[19] = system: DMS 114 small cell lung
[20] = system: NCI-H522 lung
[21] = system: CAKI-1 renal
[22] = system: OVCAR-4 ovarian
[23] = system: UACC-257 melanoma
[24] = system: COLO 205 colon
[25] = system: SF-539 CNS
[26] = system: OVCAR-8 ovarian
[27] = system: SK-MEL-5 melanoma
[28] = system: SNB-19 CNS
[29] = system: ACHN renal
[30] = system: SF-295 CNS
[31] = system: HCC-2998 colon
[32] = system: SNB-78 CNS
[33] = system: NCI-H226 lung
[34] = system: HCT-15 colon
[35] = system: OVCAR-3 ovarian
[36] = system: K-562 leukemia
[37] = system: SK-MEL-28 melanoma
[38] = system: SR leukemia
[39] = system: KM20L2 colon
[40] = system: MALME-3M melanoma
[41] = system: SK-OV-3 ovarian
[42] = system: SF-268 CNS
[43] = system: SW-620 colon
[44] = system: M14 melanoma
[45] = system: SN12C renal
[46] = system: 786-0 renal
[47] = system: KM12 colon
[48] = system: HOP-92 NSCLC
[49] = system: HT29 colon
[50] = system: U251 CNS
[51] = system: LOX IMVI melanoma
[52] = system: HL-60(TB) leukemia
[53] = system: SK-MEL-2 melanoma
[54] = system: M19-MEL melanoma
[55] = system: OVCAR-5 ovarian
[56] = system: IGROV1 ovarian
[57] = system: HOP-62 NSCLC
[58] = system: XF 498 CNS
[59] = system: RPMI-8226 leukemia

Measured: TGI

C=CCNC(=O)/C=C\C(=O)O
not listed: [58] | [59]
> 100 µM: all other assays above

O=c1c2ccccc2nc(/C=C(\O)c2ccccc2)n1-c1ccccc1Cl
not listed: [58] | [59]
> 100 µM: all other assays above

COc1cc2c[n+]3ccc4cc(OC)c(OC)cc4c3cc2cc1O
not listed: [2] | [19] | [21] | [22] | [24] | [32] | [33] | [35] | [57]
> 100 µM: all other assays above
